The subject of series [1] is gut glutathione (GSH) production. The experiment in a line: Gut GLN and GSH fluxes in DMBA-treated rats. It counts as in vivo, Sprague-Dawley rats. Conditions: 20 mg DMBA gavage; 1 week after DMBA; FIG. 15. The protocol: Methods: 80 Sprague-Dawley rats were randomized to 4 groups (n=20/group): DMBA+GLN, DMBA+FA, OIL+GLN, OIL+FA. Rats (age 50 days) were gavaged with a 1-time dose of 20 mg DMBA or oil. Rats were gavaged with AES-14 (1 gm GLN/kg/day) or an isonitrogenous amount of Freamine (FA) from 1 week before till sacrifice at 1 week after DMBA (greatest effect on gut GSH extraction). Arterial and portal blood was taken for GLN and GSH levels, and blood flow measured using 14-C-PAH. Gut GLN and GSH fluxes (uptake or production) were calculated.

For series [2], the system named is GSH transport in jejunal basolateral membrane vesicles (BLMV). The experiment in a line: [3H]Glutathione uptake in jejunal basolateral membrane vesicles after DMBA. Conditions: 100 mg/kg DMBA single dose; one week after; FIG. 26. It counts as in vivo, Sprague-Dawley rats. The protocol: Methods: The transport of GSH in the jejunal basolateral membrane vesicles (BLMV) was investigated in Sprague-Dawley rats treated with a single dose of 100 mg/kg DMBA (n=15) or sesame oil (n=15) as controls. The animals were pair-fed pre-defined chow and were given water ad libitum. All rats were sacrificed one week after the DMBA administration. Jejunal basolateral membrane vesicles (BLMV) were prepared using Percoll Colloidal PVP coated silica differential centrifugation technique. All steps were carried out at 2-4° C. Jejunal mucosal scraping was homogenized in isolation buffer containing 180 mM sucrose/2 mM Tris being adjusted to pH 7.40 by 2 mM Hepes using a Polytron homogenizer (Brinkman, Rexdale, ON), at setting 2 to 6 then 6 to 2, over 55 seconds. The homogenate was centrifuges for 10 minutes at 1000 g. The supernatant was filtered through four layers gauze and recollected. The supernatant containing basolateral membrane material then was centrifuged 15 minutes at 22,000 g. […] Protein concentration was determined by the Bio-Rad protein assay (Bio-Rad Laboratories, Hercules, Calif.).
The uptake of [^3H]Glutathione was measured by a rapid mixing/filtration technique. […] All vials were counted with liquid scintillation system LS 1801 (Beckman coulter, Fullerton, Calif.).

For series [3], the system named is natural killer (NK) cell cytotoxicity. The series is described as follows: NK cell cytotoxicity, 51-Chromium release assay with YAC-1. It counts as in vivo, rats. Conditions: only at week 1 and week 11; FIG. 31. Here is the method: Rats were treated as in Example 5.
NK cell cytotoxicity was measured as follows: Aseptically removed spleens were minced using a sterile scalpel, and lymphocytes were teased from the splenic capsule with warm RPMI 1640 (Gibco BRL, Life Technologies Inc., Grand Island, N.Y.). The resulting cells were poured into 50 ml conical tubes, which were filled with ammonium chloride (0.83%) (Sigma Chemical Co., St. Louis, Mo.) to lyse the red cells. The cell solution was then centrifuged for 10 minutes at 1000 rpm. The supernatant was decanted, and the cell pellet was vortexed with RPMI (no GLN) and centrifuged again. Next, the cells were resuspended in approximately 10 ml of RPMI containing 10% fetal bovine serum […] (Gibco BRL, Life Technologies Inc., Grand Island, N.Y.) supplemented with 1% GLN. This cell suspension was placed in Petri dishes and incubated in 6% CO2 at 37° C. for 30 minutes. After incubation to assure adherence of the monocytes, the nonadherent lymphocytes were counted (1:1 with crystal violet stain). Approximately 7×10^6 total cells from each spleen were incubated for 3 days in RPMI containing 10% FBS and recombinant human IL-2 (500 U/ml). […] The calculation of the NK activity is expressed as the following equation: [formula]

The nature of series [4]: Portal blood and gut mucosa GSH after DMBA. It counts as in vivo, Sprague-Dawley rats. To be noted: 100 mg/kg DMBA, one week after.
The subject of series [5] is Caco-2 cell monolayers.
Protocol: (§1) Uptake and permeability of each compound was measured in the apical-to-basolateral direction, with and without vehicle.
(§2) Each compound was tritiated. ^14C-mannitol was used as an evaluation of monolayer/cell integrity (i.e. as a low uptake/permeability marker).
(§3) Uptake and Permeability Assessments. Compound cellular uptake into and permeability across Caco-2 monolayers was measured.
(§4) HBSS was used when no pharmaceutical vehicle was present for each of the four compounds. […] Monolayer integrity was monitored using ^14C-mannitol permeability. Mannitol uptake was also studied.
(§5) Uptake and permeability studies were conducted using Transwelle inserts in the apical to basolateral direction, at intervals of 10 sec., 60 sec., and 5 min.
(§6) ^14C-mannitol and ^3H-drugs were quantified by liquid scintillation counting. For uptake studies, at designated time points (10 sec, 60 sec, and 5 min), the donor solution was aspirated off. The cell monolayer was washed twice with ice cold HBSS to remove any residual binding and then dissolved in 1 ml of the cell solubilizing agent, Solvable®. The cell lysate (0.5 ml) was added to 5 ml scintillation cocktail (Econosafe®) and counted on liquid scintillation counter (Beckman LS5801, Columbia, Md.). For permeability studies, 0.5 ml of received solution was added to 5 ml scintillation cocktail (Econosafe®) and counted on liquid scintillation counter.
The test system of series [6] is Caco-2 cell monolayers. The source holds these as a separate data set.
Protocol: (§7) Compound cellular uptake into and permeability across Caco-2 monolayers was measured.
(§8) Monolayer integrity was monitored using ^14C-mannitol permeability. Mannitol uptake was also studied.
as §5, §6
(§9) Permeability is an absolute measure (units of cm/Sec or velocity) and can be determined even though the absolute drug concentrations were not known.
In series [7] the test system is human gastrointestinal epithelial cell line (CaCo). The series is described as follows: Cellular glutamine uptake in CaCo cells (HPLC). The class given is cell-based. The protocol: Both samples were allowed to stand for 1 day at room temperature. The supernatant was decanted from the residue and used for the cellular uptake determination.
On Day 1, cells from a human gastrointestinal epithelial cell line (CaCo) were plated at a density of 0.5×10^6 cells per well in a 6-well tissue culture dish.
At time points 0, 10, 20, 40, and 60 seconds the test material was aspirated and the cells washed three times (3×) with chilled (4° C.) phosphate buffered saline (PBS), followed by the addition of 1.0 ml of perchloric acid. Cells were harvested by scraping, then aspiration by pipet into a 1.7 ml tube.
The harvested cells were sonicated for 10 seconds, and 500 μl of sonicated cells were transferred into a 1.7 ml tube. The perchloric acid was neutralized by the addition of 130 μl of 2M KHCO3, and the resulting mixture was frozen overnight at −80° C.
Upon thawing, the sample was centrifuged for 10 minutes at 14,000 rpm and the supernatants were transferred to new 1.7 ml tubes and frozen at −80° C. The resulting clarified samples were thawed and diluted 1:3 with deionized water. […] After incubation for two minutes at room temperature, a 20 μl sample was injected on a Hypersil® C18 Elite 5 μm HPLC column using 70:30 acetonitrile:water as the mobile phase. Glutamine levels, measured as μg/ml, were detected at 340 nm.

The subject of another series is tumor. Conditions: cited from earlier work.
For series [8] the following is noted: The Merck Index, cited from earlier work.
A further series in a line: in vitro. Conditions: human, Caco-2, Mannitol Permeability with Vehicle. (In general: Passage across Caco-2 layers is used to estimate intestinal permeability.)
Series [9] deals with Caco-2 cell monolayers. The series is described as follows: Relative cellular uptake into Caco-2 monolayers, vehicle vs non-vehicle. To be noted: saturated solutions; AES-14 vehicle vs HBSS; FIGS. 3-6.
Protocol: as §1, §2, §3, §4, §5, §6
Series [10] relates to Caco-2 cell monolayers. The experiment in a line: Caco-2 permeability, apical-to-basolateral. To be noted: Aesgen-14 vehicle vs no vehicle; saturated solutions; 5 minute period; FIGS. 8-11.
Protocol: as §7, §8, §5, §6, §9

The text below walks through data of patent publication US20050090451A1, “Treatment of cancer with glutamine” (priority 2002, published 2005).

≈ marks a conversion by molar mass, not a printed value. Where two headings read alike, the source gives them in different places. Square brackets hold non-standard residues; d marks the D form. Peptide text beside a SMILES is read from it. Sar = CNCC(=O)O

Protocol for in vitro: as §7, §8, §5, §6, §9

For `Cc1c2ccccc2c(C)c2c1ccc1ccccc12` [DMBA, 7,12-dimethylbenz[a]anthracene], in series [1], the “effect on gut GLN metabolism” value is given as “not affecting” and the “effect on normal gut GSH production (negative flux)” value is given as “abrogated”. Further, the “decrease of the rate of total GSH uptake by BLMV vs control group” value in series [2] was 42%. Further, the “NK cell activity vs non-DMBA controls” value in series [3] was “lower”. Moreover, the “decrease of portal blood GSH concentration” value in series [4] (FIG. 27) was 34%. The “increase of gut mucosa GSH” value in [4] (FIG. 28) is reported as “two-fold”.
On to `NC(=O)C[C@H](N)C(=O)O` [L-asparagine], for which the “enhancement of cellular drug uptake by vehicle (relative uptake vehicle vs non-vehicle)” value in the series with Caco-2 cell monolayers [5] is given as “about four-fold”. In addition, the “effect of vehicle on permeability” value in the series on Caco-2 cell monolayers [6] was “no effect”.
With `NC(=O)CC[C@H](N)C(=O)O` [L-glutamine], the “mean cellular glutamine uptake” value in series [7] (normal cells, incubation time 0 seconds) was found to be 3.53 µg/mL; in series [7] (normal cells, incubation time 10 seconds), 10.30 µg/mL; in series [7] (normal cells, incubation time 20 seconds) it was 2.48 µg/mL; in series [7] (normal cells, incubation time 40 seconds), 3.23 µg/mL; in [7] (normal cells, incubation time 60 seconds), 4.85 µg/mL; in [7] (starved cells (L-glutamine deficient medium), incubation time 0 seconds) it was 1.33 µg/mL. Besides, the “mean cellular glutamine uptake” value in series [7] (starved cells, incubation time 10 seconds) is 1.43 µg/mL; in series [7] (starved cells, incubation time 20 seconds) it was 1.49 µg/mL; in series [7] (starved cells, incubation time 40 seconds) it was 2.23 µg/mL; in series [7] (starved cells, incubation time 60 seconds), 49.96 µg/mL. Besides, in the series on Caco-2 cell monolayers [5], the “enhancement of cellular uptake by vehicle” value is recorded as “enhanced”. For the same molecule, the “tumor volume loss when glutamine was added to the diet” value in the series with tumor (rats receiving methotrexate, Klimberg 1992) is given as “nearly doubled”. For the same molecule, the “decrease of tumor growth” value in the series on tumor (rats, glutamine by gavage or as a food additive, within three weeks, Fahr 1994) was 40%. In addition, the solubility in water in [8] (0° C.) is 18 mg/mL (≈ 123 mM); in [8] (18° C.), 26 mg/mL (≈ 178 mM); in series [8] (30° C.), 48 mg/mL (≈ 328 mM). In addition, the “effect of vehicle on permeability” value with Caco-2 cell monolayers [6] is “no effect”.
Usually Papp A→B stands for how fast a substance crosses the layer from the apical side. Take `OC[C@@H](O)[C@@H](O)[C@H](O)[C@H](O)CO` [Mannitol, mannitol]: in the series with Caco-2 cell monolayers [5], the “effect of vehicle on mannitol relative uptake” value was “no effect”. Besides, the apical-to-basolateral permeability (Papp A→B) at 5 min in “in vitro” was 0.916 ×10⁻⁶ cm/s. In the series with Caco-2 cell monolayers [6], the “Mannitol Permeability with Vehicle” value is listed as “Below LOQ”, the “Mannitol Permeability without Vehicle” value is reported as “Below LOQ” and the “effect of vehicle on mannitol permeability” value is given as “no effect”.
With `Nc1nc2c(ncn2COCCO)c(=O)[nH]1` [acyclovir], the “effect of vehicle on permeability” value with Caco-2 cell monolayers [6] is “no effect”.
Take `CN(CC(=O)O)C(=O)CN` [glycylsarcosine] (H-Gly-[Sar]-OH): the “enhancement of cellular drug uptake by vehicle (relative uptake vehicle vs non-vehicle)” value with Caco-2 cell monolayers [9] was “about four-fold”. Also, the “effect of vehicle on permeability” value in the series with Caco-2 cell monolayers [10] was “no effect”.
